The results in this text go back to US9273014B2, “Bis(fluoroalkyl)-1,4-benzodiazepinone compounds and prodrugs thereof” (Bristol-Myers Squibb Company, priority 2012, dated 2016).

Series [1] relates to TALL1 Human T-cell acute lymphoblastic leukemia. The series can be described thus: Human tumor xenograft model in mice, TALL1. Conditions: oral administration, 10-20 mg/kg, QDx10; LCK = Log Cell Kill. Format: in vivo. The procedure: (§1) Human Tumor Xenograft Models in Mice
(§2) Mice were fed food and water ad libitum.
(§3) Tumor growth inhibition is calculated as follows: […]
(§4) When death occurred, the day of death was recorded.

For the next series, the system named is human tumor xenografts. The series can be described thus: Human tumor xenograft models in mice (general statement). Conditions: orally administered (PO). It counts as in vivo. As for the experimental part:
Mice were fed food and water ad libitum. […] [table] […] When death occurred, the day of death was recorded.

Another series can be described thus: in vitro. Conditions: human, microsomes, pH 7.4.
The test system of series [2] is MDA-MB-468 Human Breast Carcinoma. Conditions: oral administration, 10-20 mg/kg, QDx15, 10 day-on-2 day-off-5 day on. The procedure:
Treatment of each animal was based on individual body weight. Treated animals were checked daily for treatment related toxicity/mortality. Each group of animals was weighed before the initiation of treatment (Wt1) and then again following the last treatment dose (Wt2). The difference in body weight (Wt2−Wt1) provides a measure of treatment-related toxicity.
Statistical evaluations of data were performed using Gehan's generalized Wilcoxon test. Statistical significance was declared at P<0.05.

Series [3] has as its system MDA-MB-157 Human Breast Carcinoma. The series can be described thus: Human tumor xenograft model in mice, MDA-MB-157. Format: in vivo. Conditions: oral administration, 10-20 mg/kg, QDx15, 10 day-on-2 day-off-5 day on. The procedure: as §1, §2, §3, §4
The target of the next series is human Notch 3 (Homo sapiens, UniProt Q9UM47). The series can be described thus: Notch-CBF1 Transactivation Assay (Notch 3). It counts as cell-based. Conditions: HeLa cells co-transfected with truncated Notch 3 and CBF1 luciferase reporter; 18 hours incubation. From the text: Notch-CBF1 Transactivation Assay
The Notch-CBF1 (C-promoter binding factor I) cell based transactivation assay is based on the ability of the released Notch intracellular domain fragments (NICDs) to function as transcription factors in conjunction with CBF1 and other nuclear factors. Luciferase assays were used to measure the antagonism of Notch-CBF1 transcriptional activity. HeLa cervical cancer cells are transiently co-transfected with pCDNA3.1/Hygro plasmids containing truncated Notch 1, Notch 2, Notch 3, or Notch 4 receptors and a PGL3 luciferase reporter vector containing 4 copies of CBF1 binding site. The cells were then tested for Notch-CBF1 activity in the absence or presence of test compounds. HeLa cells, maintained in DMEM (high glucose with HEPES), 1× glutamine/penicillin/streptomycin and 10% Fetal Bovine serum, were transiently transfected in a T175 Flask (4.5×10^6 cells/flask) using the Monster Transfection Kit (Minis #MIR2906) according to manufacturers specifications. Table 9 denotes respective DNA quantity for the transfections.
Assay media (5 μL) containing test compounds in final concentrations ranging from 5 μM to 8.4×10^−5 μM (3 fold serial dilutions) were added to the cells and the cell plates were then incubated for 18 hours at 37° C. and 5% CO2. Control wells contained DMSO vehicle (total counts) or 0.5 μM of an in-house small molecule inhibitor (background counts). Duplicates were used for each sample. Luciferase activity was measured after a 20-minute incubation with 50 μl STEADY-GLO® luciferase reagents according to manufacturer's specifications (Promega, Cat. #E2550) and analyzed by Envision plate reader (PerkinElmer, Boston, Mass.).
The antagonist effect of compounds was expressed as 100×[1−(average sample-average background)/(average total−average background)] where sample is the luciferase activity in the presence of test compound, background is equal to the luciferase activity in the presence of the small molecule inhibitor control and the total is signal induced in DMSO wells.

SMILES strings stand for the structures. Entries after “also recorded” stand apart in the source; their conditions may differ. Some results are limits rather than exact numbers.

Sequence of human Notch 3 (Q9UM47 40-2321 limits assumed): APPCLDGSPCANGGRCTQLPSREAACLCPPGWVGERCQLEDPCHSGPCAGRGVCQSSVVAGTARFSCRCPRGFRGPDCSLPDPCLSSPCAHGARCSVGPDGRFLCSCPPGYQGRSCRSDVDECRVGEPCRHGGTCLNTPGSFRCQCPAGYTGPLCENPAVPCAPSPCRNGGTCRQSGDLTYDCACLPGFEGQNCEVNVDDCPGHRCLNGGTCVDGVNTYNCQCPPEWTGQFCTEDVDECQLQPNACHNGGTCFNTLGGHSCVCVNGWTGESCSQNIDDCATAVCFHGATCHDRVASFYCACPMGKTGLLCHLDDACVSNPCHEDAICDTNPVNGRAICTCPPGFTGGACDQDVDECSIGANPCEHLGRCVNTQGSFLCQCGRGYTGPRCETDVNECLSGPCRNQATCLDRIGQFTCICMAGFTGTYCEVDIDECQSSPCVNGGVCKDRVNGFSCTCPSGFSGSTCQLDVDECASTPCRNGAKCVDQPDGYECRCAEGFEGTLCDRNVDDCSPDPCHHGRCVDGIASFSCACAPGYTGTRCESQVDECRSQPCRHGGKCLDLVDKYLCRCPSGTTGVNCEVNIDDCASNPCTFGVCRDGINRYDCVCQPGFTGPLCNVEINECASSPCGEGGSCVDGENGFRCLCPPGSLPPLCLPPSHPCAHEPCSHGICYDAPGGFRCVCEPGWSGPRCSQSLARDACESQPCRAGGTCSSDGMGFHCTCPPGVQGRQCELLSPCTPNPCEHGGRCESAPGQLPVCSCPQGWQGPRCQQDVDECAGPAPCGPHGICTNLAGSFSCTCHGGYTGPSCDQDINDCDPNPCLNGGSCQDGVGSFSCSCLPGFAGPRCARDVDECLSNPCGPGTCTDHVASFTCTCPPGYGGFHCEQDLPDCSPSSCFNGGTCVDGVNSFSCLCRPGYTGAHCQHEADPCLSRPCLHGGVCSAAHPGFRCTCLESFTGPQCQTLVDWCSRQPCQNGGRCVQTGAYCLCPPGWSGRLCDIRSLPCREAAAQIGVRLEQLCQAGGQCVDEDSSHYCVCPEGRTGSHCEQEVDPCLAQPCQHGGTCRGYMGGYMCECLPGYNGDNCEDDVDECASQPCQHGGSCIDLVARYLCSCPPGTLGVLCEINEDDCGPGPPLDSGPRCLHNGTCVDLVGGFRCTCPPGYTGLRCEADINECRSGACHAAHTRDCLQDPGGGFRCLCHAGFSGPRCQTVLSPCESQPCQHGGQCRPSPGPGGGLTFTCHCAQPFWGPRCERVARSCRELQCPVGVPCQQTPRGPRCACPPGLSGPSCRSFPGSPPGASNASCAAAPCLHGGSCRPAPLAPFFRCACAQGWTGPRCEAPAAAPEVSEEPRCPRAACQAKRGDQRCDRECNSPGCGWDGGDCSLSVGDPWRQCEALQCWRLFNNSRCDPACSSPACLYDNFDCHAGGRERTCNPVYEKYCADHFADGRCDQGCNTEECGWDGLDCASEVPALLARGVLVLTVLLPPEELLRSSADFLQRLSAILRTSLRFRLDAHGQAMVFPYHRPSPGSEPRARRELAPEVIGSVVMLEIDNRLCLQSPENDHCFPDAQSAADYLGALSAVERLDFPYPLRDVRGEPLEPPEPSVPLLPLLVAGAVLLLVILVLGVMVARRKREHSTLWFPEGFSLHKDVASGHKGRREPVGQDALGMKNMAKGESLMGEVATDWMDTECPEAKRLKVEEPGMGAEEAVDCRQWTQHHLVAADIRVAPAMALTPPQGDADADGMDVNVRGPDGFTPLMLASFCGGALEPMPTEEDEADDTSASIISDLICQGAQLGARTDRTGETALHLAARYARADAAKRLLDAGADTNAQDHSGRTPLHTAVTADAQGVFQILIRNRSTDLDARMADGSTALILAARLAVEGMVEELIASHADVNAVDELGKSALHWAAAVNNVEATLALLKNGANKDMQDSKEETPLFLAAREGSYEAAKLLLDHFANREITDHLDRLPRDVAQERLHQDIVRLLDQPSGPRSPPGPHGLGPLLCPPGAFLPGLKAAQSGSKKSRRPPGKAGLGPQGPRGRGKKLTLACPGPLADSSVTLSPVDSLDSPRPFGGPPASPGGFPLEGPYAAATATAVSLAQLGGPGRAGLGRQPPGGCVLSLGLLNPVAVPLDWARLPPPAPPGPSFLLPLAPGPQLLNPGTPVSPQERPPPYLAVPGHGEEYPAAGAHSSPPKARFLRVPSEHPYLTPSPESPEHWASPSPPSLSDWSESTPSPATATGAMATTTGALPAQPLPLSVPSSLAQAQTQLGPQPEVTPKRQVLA

As for `Cc1cccc2c1NC(=O)[C@@H](NC(=O)[C@H](CCC(F)(F)F)[C@H](CCC(F)(F)F)C(N)=O)N=C2c1cccc(F)c1` [Example 1, (2R,3S)—N-((3S)-5-(3-Fluorophenyl)-9-methyl-2-oxo-2,3-dihydro-1H-1,4-benzodiazepin-3-yl)-2,3-bis(3,3,3-trifluoropropyl)succinamide], in series [1], the “Antitumor Activity TALL1 (LCK)” value is above 4.3. The “antitumor activity in human tumor xenografts implanted in mice” value in the series on human tumor xenografts is on record as “exhibited antitumor activity; also recorded: showed antitumor activity”. The same molecule gave a half-life at 0.5 µM in “in vitro” of 1.72 h. Besides, the “Antitumor Activity MDA-MB-468 (% TGI)” value in series [2] is reported as 98%. For the same molecule, the “Antitumor Activity MDA-MB-157 (% TGI)” value in series [3] was 91%. The IC50 against human Notch 3 stood at 8.5 nM.
